Measured values reported in patent US6043045A, “Screening methods for the identification of novel antibiotics” (The Scripps Research Institute, priority 1998, dated 2000).
“Also recorded” adds a separate entry of the source.

Key:
[1] = molecular target: T1, KinA (Bacillus subtilis, UniProt P16497); experiment: Test whether fatty acids serve as substrate for KinA-catalyzed phosphorylation (heptane partition); assay type: biochemical; conditions: KinA 2 μM, no SpoOF, radioactivity in organic phase
T1 construct: made in house
T1 sequence (P16497 1-606): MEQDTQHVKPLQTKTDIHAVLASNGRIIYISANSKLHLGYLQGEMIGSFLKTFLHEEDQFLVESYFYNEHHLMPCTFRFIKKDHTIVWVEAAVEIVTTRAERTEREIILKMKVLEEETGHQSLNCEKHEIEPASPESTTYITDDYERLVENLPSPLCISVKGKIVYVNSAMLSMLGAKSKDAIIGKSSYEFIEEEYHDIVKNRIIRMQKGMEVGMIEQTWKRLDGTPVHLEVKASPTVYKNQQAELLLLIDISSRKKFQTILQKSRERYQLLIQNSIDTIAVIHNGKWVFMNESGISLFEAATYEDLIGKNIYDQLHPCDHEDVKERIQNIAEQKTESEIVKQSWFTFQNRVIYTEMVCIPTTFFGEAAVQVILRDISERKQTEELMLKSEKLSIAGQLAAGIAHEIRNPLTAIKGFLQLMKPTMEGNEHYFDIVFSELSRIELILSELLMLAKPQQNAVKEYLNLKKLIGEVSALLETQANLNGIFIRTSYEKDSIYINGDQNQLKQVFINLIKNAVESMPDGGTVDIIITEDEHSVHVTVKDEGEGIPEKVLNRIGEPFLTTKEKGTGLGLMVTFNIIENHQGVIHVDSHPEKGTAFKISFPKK
Description: To determine if fatty acids served as a substrate for KinA-catalyzed phosphorylation, the following method was used. The above reaction conditions were employed except that no SpoOF was present; the KinA was at 2 μM and the reactions incubated for 5 minutes prior to the addition of fatty acids. After this initial incubation, to allow autophosphorylation to occur, 48 μl aliquots were added to tubes containing (a) two μl ethanol; (b) 2 μl of 2% oleic acid; and (c) 2 μl of 2% palmitic acid. The reactions were allowed to incubate 10 minutes after which time 0.5 ml H2 O and 0.5 ml heptane were added to each. After 10 minutes at room temperature, the phases were separated by centrifugation. The aqueous phases were washed with H2 O-saturated heptane and the heptane phases washed with heptane-saturated H2 O. The Cerenkov radiation in each phase and wash was determined.
Oleic acid was added to a reaction mixture containing KinA~[^32 P], and after a suitable incubation, the mixture was separated into organic and aqueous phases (as described above). Under the conditions used, fatty acid species would partition into the organic phase leaving the KinA~P and unincorporated [γ^32 P]ATP in the aqueous phase. The amount of radioactivity in the organic phase containing oleic acid was negligible and no different from the amount present in the control reactions (data not shown).

[2] = molecular target: T1, KinA; experiment: biochemical; assay type: biochemical
Description: The reactions were performed in a 25 μl final volume containing 100 mM Tris pH 8.0, 100 mM KCl, 2 mM MgCl2, 0.5 mM dithiothreitol, 10% (v/v) glycerol, 0.1 % (w/v) gelatin, 4% (v/v) ethanol, 200 μM total ATP containing approximately 1.5 μCi [gamma-^32 P]ATP (New England Nuclear, 6000 Ci/mMol, 150 μCi/ml), 300 μM SpoOF protein and 0.04 μM KinA protein (Perego, et al., J. Bacteriol. 171: 6187-6196 (1989)) unless otherwise indicated. Fatty acids were added to varying final concentration from solutions made with 100% ethanol (the 4% ethanol concentration in the reaction mixture reflects these addition, or in the case of controls, the addition of ethanol alone). The reactions were initiated by addition of the ATP and incubated for thirty minutes at room temperature.
When higher KinA concentrations were used, the time of incubation was adjusted accordingly. The reactions were stopped by adding an equal volume of loading dye (0.25 M Tris pH 6.8, 20% (v/v) glycerol, 1% sodium dodecyl sulfate (w/v), 140 mM β-mercaptoethanol, 0.05% (w/v) bromophenol blue) and aliquots were loaded onto polyacrylamide gels (5% stacking, 15% separating, using the buffer system of Laemmi, Id., 1970).
The gels were run for approximately 16 hours at 10 mA constant current. The gels were covered with plastic wrap and subjected to autoradiography using Kodak XOmat RP1 film. Quantitation of activity was accomplished by cutting gels slices containing the appropriate phosphoprotein (usually SpoOF~P, see Section E below) and counting the Cerenkov radiation in a Beckman LF7500 scintillation counter (Beckman Instruments, Fullerton, Calif.). Equal-sized slices from blank areas of the gels were also counted and used to adjust for background. Percentage of activity was calculated using the value of the control reaction as 100%.
To quantify our initial assessment of inhibitory properties, the I0.5 values (at 4×10^-8 M KinA) were determined for each of the fatty acids. […] For example, the percent activity at an indicated oleic acid concentration is the ratio (×100) of the incorporation of ^32 P (from [γ^32 P]ATP) into the SpoOF protein relative to the incorporation in the control reaction containing no inhibitor. Typically, data are gathered from at least two different experiments. The I0.5 value is the concentration--e.g., the oleic acid concentration--corresponding to 50% activity as determined from the relevant graph.

[3] = molecular target: T2, KinA~P (Bacillus subtilis, UniProt P16497); experiment: Dephosphorylation of preformed KinA~P; assay type: biochemical; conditions: oleic acid 2.5×10^-4M, no SpoOF
T2 construct: made in house
Description: Next, the ability of oleic acid to enhance the dephosphorylation of preformed KinA~P was investigated. Autophosphorylation of in the presence of [γ^32 P]ATP was allowed to proceed for 60 minutes in the absence of SpoOF. At the end of this incubation, the reaction was divided into two aliquots, one receiving oleic acid to a final concentration of 2.5×10^-4M. Samples from each were withdrawn at timed intervals, fractionated on polyacrylamide gels, the KinA bands excised and the incorporated radioactivity determined.

[4] = molecular target: T1, KinA; experiment: KinA autophosphorylation assay at higher KinA concentration and ATP competition series; assay type: biochemical
Description: (§1) The above-noted experiments were performed using a KinA concentration of […]. At this concentration, a band corresponding to KinA~P was not visible on the autoradiographs. Therefore, it could not be determined if the inhibition occurred at the KinA autophosphorylation step or at the phosphotransferase reaction between KinA~P and SpoOF. To address this question, assays were performed using a higher KinA concentration (1×10^-6 M). The prevention of stable autophosphorylation of KinA by oleic acid was confirmed. Data was gathered which verified the incorporation of ^32 P from [γ^32 P]ATP into the KinA protein in the presence of SpoOF and differing concentrations of oleic acid (not shown). The assay was performed as disclosed hereinabove, except that the KinA concentration was increased to 1×10^-6 M and the incubation time was shortened to three minutes.
(§2) To determine the nature of the fatty acid inhibition of autophosphorylation, three series of reactions were performed. In the first series, no oleic acid was present; the second contained 2.5×10^-5 M oleic acid; the third contained 7.0×10^-5 M oleic acid. […] Even at the lowest oleic acid concentration (2.5×10^-5 M) and highest ATP level (2×10^-3 M), the KinA was greater than 95% inhibited.

[5] = substrate: Nc1ncnc2c1ncn2[C@@H]1O[C@H](COP(=O)(O)OP(=O)(O)OP(=O)(O)O)[C@@H](O)[C@H]1O; experiment: Phosphorylation of His-SpoOF immobilized on Ni-resin by KinA (high throughput assay); assay type: biochemical, Bacillus subtilis; conditions: 1 μM KinA, 22° C., 20 min
Description: Phosphorylation of immobilized His-SpoOF was carried out using the MultiScreen 96-well filtration plate (0.65 μm, type DVPP) from Millipore (Bedford, Mass.). The removal of liquid from the wells of the filtration plate was done with the vacuum manifold from Millipore. The His-SpoOF resin (25%, v/v) was placed into individual wells of the filtration plate and washed twice with 200 μl buffer A. A total volume of 80 μl of buffer A containing the indicated amounts of KinA, ATP, and [γ-^32 P]ATP was added to the wells.
The plate was then incubated for the indicated period of time at 22° C. with gentle shaking. The reaction was terminated by removal of the reaction mixture from the wells followed by three washes of the resin with buffer A.
The resin was then washed three times with buffer A containing 30 mM imidazole with 5 min. incubation/shaking and another three times with buffer A only. […]
For analysis by scintillation counting, 80 μl of 0.2 N HCl was added to each of the wells and the plate was incubated at 55° C. with gentle shaking for 1 hour. […] To each of the wells of the MicroFluor plate, 150 μl of MicroScint-40 (Packard, Meriden, Conn.) was added and the radioactivity was counted using the TopCount from Packard. […]

[6] = substrate: Nc1ncnc2c1ncn2[C@@H]1O[C@H](COP(=O)(O)OP(=O)(O)OP(=O)(O)O)[C@@H](O)[C@H]1O; experiment: KinA autophosphorylation assay at higher KinA concentration and ATP competition series; assay type: biochemical, Bacillus subtilis; conditions: other: KinA
Description: as §1, §2

Molecule: CCCCCCCC/C=C\CCCCCCCC(=O)O [cis-9-octadecanoic]
- substrate for KinA catalyzed phosphorylation [1]: did not serve as a substrate
- inhibitory effect on KinA in vitro (in words) [2]: potent inhibitors
- IC50 ([2]; Table 4, I0.5 at 4×10^-8 M KinA, 32P incorporation into SpoOF, read-out: Fatty Acid Inhibitors of KinA Activity (category by I0.5)): < 70 µM
- inhibition of KinA phosphorylation of SpoOF (in words) ([2]; tested at 0.08% final concentration): essentially complete inhibition
- loss of 32P from preformed KinA~P versus reaction without oleic acid [3]: no significant difference
- inhibition of KinA ([4]; 2.5×10^-5 M oleic acid, highest ATP level 2×10^-3 M): greater than 95%
- competition of inhibition with ATP ([4]; ATP 2×10^-5 to 2×10^-3 M, oleic acid 2.5×10^-5 and 7.0×10^-5 M): ATP is not competitive with oleic acid inhibition
- phosphotransfer from KinA~P to SpoOF ([4]; KinA 1×10^-6 M): can also inhibit the phosphotransfer from KinA~P to SpoOF
- formation of KinA~P and SpoOF~P ([4]; KinA 1×10^-6 M, 3 min, differing oleic acid concentrations): inhibits the formation of KinA~P and SpoOF~P in a concentration-dependent fashion; also recorded: acts to inhibit the autophosphorylation of KinA

B1: KinA (histidine protein kinase) (Bacillus subtilis subsp. subtilis str. 168) (protein)
chain: MEQDTQHVKPLQTKTDIHAVLASNGRIIYISANSKLHLGYLQGEMIGSFLKTFLHEEDQFLVESYFYNEHHLMPCTFRFIKKDHTIVWVEAAVEIVTTRAERTEREIILKMKVLEEETGHQSLNCEKHEIEPASPESTTYITDDYERLVENLPSPLCISVKGKIVYVNSAMLSMLGAKSKDAIIGKSSYEFIEEEYHDIVKNRIIRMQKGMEVGMIEQTWKRLDGTPVHLEVKASPTVYKNQQAELLLLIDISSRKKFQTILQKSRERYQLLIQNSIDTIAVIHNGKWVFMNESGISLFEAATYEDLIGKNIYDQLHPCDHEDVKERIQNIAEQKTESEIVKQSWFTFQNRVIYTEMVCIPTTFFGEAAVQVILRDISERKQTEELMLKSEKLSIAGQLAAGIAHEIRNPLTAIKGFLQLMKPTMEGNEHYFDIVFSELSRIELILSELLMLAKPQQNAVKEYLNLKKLIGEVSALLETQANLNGIFIRTSYEKDSIYINGDQNQLKQVFINLIKNAVESMPDGGTVDIIITEDEHSVHVTVKDEGEGIPEKVLNRIGEPFLTTKEKGTGLGLMVTFNIIENHQGVIHVDSHPEKGTAFKISFPKK
notes: made in house; host or cells: E. coli (printed "E. coil")
- Km ([5]; other: SDS-PAGE analysis): 72 µM
- Km ([5]; other: scintillation counting): 70 µM

B2: KinA (Bacillus subtilis subsp. subtilis str. 168) (protein)
chain: MEQDTQHVKPLQTKTDIHAVLASNGRIIYISANSKLHLGYLQGEMIGSFLKTFLHEEDQFLVESYFYNEHHLMPCTFRFIKKDHTIVWVEAAVEIVTTRAERTEREIILKMKVLEEETGHQSLNCEKHEIEPASPESTTYITDDYERLVENLPSPLCISVKGKIVYVNSAMLSMLGAKSKDAIIGKSSYEFIEEEYHDIVKNRIIRMQKGMEVGMIEQTWKRLDGTPVHLEVKASPTVYKNQQAELLLLIDISSRKKFQTILQKSRERYQLLIQNSIDTIAVIHNGKWVFMNESGISLFEAATYEDLIGKNIYDQLHPCDHEDVKERIQNIAEQKTESEIVKQSWFTFQNRVIYTEMVCIPTTFFGEAAVQVILRDISERKQTEELMLKSEKLSIAGQLAAGIAHEIRNPLTAIKGFLQLMKPTMEGNEHYFDIVFSELSRIELILSELLMLAKPQQNAVKEYLNLKKLIGEVSALLETQANLNGIFIRTSYEKDSIYINGDQNQLKQVFINLIKNAVESMPDGGTVDIIITEDEHSVHVTVKDEGEGIPEKVLNRIGEPFLTTKEKGTGLGLMVTFNIIENHQGVIHVDSHPEKGTAFKISFPKK
notes: made in house
- Km [6]: 130 µM
